Assay results published in patent US12358886B2, “Heterocyclic compounds for use in the treatment of cancer” (Artios Pharma Limited, priority 2019, dated 2025).

biological target: Polθ protein (amino acids 2-2590) (Homo sapiens, UniProt O75417); assay: Polθ full length enzyme potency assay (PicoGreen); settings: Polθ IC50 (nM), full length N-His, C-term FLAG tagged Polθ, PicoGreen fluorescence, 12 point concentration response
Sequence (O75417 2-2590): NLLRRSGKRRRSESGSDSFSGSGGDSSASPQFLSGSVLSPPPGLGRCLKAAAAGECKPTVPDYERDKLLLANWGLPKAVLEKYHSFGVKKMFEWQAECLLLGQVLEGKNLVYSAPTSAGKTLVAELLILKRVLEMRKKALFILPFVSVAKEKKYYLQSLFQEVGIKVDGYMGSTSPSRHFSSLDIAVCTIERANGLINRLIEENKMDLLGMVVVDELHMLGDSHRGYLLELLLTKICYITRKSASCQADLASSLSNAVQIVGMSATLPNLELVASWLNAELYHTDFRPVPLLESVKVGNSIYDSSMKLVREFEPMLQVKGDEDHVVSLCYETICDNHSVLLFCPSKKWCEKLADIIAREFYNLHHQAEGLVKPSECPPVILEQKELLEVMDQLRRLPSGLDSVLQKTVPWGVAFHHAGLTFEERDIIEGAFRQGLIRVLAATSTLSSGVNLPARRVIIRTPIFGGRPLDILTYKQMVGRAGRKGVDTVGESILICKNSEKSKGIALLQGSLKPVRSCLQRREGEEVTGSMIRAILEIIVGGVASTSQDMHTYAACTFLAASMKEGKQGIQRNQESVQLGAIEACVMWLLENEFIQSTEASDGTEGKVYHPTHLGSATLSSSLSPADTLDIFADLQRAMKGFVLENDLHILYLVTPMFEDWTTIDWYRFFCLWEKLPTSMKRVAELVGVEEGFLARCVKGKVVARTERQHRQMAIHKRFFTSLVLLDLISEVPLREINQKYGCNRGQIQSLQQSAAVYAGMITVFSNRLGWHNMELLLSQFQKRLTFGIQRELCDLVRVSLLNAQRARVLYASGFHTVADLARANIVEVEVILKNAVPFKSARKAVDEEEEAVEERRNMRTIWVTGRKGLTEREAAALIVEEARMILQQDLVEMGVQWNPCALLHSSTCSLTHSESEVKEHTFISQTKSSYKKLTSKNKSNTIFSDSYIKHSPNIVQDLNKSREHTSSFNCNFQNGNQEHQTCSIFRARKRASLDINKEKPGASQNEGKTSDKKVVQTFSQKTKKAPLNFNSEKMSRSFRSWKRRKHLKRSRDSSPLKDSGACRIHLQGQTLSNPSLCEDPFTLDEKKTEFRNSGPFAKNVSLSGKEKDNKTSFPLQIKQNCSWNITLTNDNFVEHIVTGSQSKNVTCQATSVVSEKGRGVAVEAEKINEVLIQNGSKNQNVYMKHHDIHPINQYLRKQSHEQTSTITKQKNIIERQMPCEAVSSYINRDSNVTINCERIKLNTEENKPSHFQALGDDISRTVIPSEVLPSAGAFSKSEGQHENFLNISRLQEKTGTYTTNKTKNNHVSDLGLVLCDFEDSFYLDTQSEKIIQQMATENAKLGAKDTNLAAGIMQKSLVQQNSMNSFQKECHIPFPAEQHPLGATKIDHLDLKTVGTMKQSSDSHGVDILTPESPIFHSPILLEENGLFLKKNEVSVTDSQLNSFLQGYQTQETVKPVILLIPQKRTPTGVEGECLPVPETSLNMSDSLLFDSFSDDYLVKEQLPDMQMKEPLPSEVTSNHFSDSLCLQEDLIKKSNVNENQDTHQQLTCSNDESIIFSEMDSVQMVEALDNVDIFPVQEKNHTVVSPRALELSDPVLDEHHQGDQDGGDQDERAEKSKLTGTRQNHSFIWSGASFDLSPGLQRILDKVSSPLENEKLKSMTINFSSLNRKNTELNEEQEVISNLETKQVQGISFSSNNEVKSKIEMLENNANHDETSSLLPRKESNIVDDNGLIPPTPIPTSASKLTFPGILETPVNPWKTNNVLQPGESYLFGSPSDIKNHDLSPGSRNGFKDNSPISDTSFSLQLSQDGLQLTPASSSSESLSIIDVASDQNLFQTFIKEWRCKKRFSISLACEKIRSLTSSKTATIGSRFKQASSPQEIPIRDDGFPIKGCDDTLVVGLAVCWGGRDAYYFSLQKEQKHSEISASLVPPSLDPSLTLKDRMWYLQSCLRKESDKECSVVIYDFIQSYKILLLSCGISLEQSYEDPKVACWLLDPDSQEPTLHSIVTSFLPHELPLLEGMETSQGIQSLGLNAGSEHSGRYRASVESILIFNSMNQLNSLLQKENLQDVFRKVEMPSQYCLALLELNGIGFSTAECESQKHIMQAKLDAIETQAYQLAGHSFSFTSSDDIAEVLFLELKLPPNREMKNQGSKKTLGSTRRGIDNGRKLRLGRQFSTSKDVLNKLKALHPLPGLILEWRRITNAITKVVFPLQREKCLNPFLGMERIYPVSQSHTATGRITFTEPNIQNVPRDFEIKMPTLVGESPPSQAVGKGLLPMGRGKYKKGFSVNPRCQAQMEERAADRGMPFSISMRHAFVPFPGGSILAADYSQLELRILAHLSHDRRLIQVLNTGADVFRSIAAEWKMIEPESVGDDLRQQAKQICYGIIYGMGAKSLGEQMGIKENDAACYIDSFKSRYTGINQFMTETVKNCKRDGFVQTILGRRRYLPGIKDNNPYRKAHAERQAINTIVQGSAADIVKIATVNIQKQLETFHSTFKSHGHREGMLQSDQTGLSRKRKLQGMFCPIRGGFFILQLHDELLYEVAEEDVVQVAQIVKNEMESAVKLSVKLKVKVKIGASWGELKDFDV

SMILES	IC50 [nM]
Cc1cc(C)c(C#N)c(N2C[C@@H](O)C[C@H]2C(=O)N(C)c2ccccc2)n1 [Example 7, (2S,4S)-1-(3-Cyano-4,6-dimethylpyridin-2-yl)-4-hydroxy-N-methyl-N-phenylpyrrolidine-2-carboxamide]	438
Cc1cc(C(F)(F)F)cc(N2C(=O)N(CC(O)CN3CCC(F)C3)C[C@H]2C(=O)N(C)c2ccc(F)c(Cl)c2F)n1 (stereo in doubt) [Example 215, (4S)—N-(3-Chloro-2,4-difluorophenyl)-1-(3-((R)-3-fluoropyrrolidin-1-yl)-2-hydroxy-propyl)-N-methyl-3-(6-methyl-4-(trifluoromethyl)pyridin-2-yl)-2-oxoimidazolidine-4-carboxamide]	8
Cc1cc(C(F)(F)F)c(C#N)c(N2C[C@@H](O)C[C@H]2C(=O)N(C)c2ccc(Cl)c(F)c2)n1 [Example 18, (2S,4S)-N-(4-Chloro-3-fluorophenyl)-1-(3-cyano-6-methyl-4-(trifluoromethyl)pyridin-2-yl)-4-hydroxy-N-methyl-pyrrolidine-2-carboxamide]	33
Cc1cc(C(F)(F)F)cc(N2C(=O)OC[C@H]2C(=O)N(C)c2ccc3cn[nH]c3c2)n1 [Example 174, (S)—N-(1H-Indazol-6-yl)-N-methyl-3-(6-methyl-4-(trifluoromethyl)pyridin-2-yl)-2-oxooxazolidine-4-carboxamide]	158
Cc1cc(C(F)(F)F)cc(N2C(=O)NC[C@H]2C(=O)N(C)c2ccc3cc[nH]c3n2)n1 [Example 233, (S)—N-Methyl-3-(6-methyl-4-(trifluoromethyl)pyridin-2-yl)-2-oxo-N-(1H-pyrrolo[2,3-b]pyridin-6-yl)imidazolidine-4-carboxamide]	3
Cc1cc(C(F)(F)F)cc(N2C(=O)N(CCN=S(C)(C)=O)C[C@H]2C(=O)N(C)c2ccc(F)c(Cl)c2)n1 [Example 228, (S)—N-(3-Chloro-4-fluorophenyl)-1-(2-((dimethyl(oxo)-16-sulfaneylidene)amino)ethyl)-N-methyl-3-(6-methyl-4-(trifluoromethyl)pyridin-2-yl)-2-oxoimidazolidine-4-carboxamide]	62

Next, values leading:

IC50 [nM]	SMILES
42	CCN(C(=O)[C@@H]1[C@H](O)[C@H](O)CN1c1nc(C)cc(C(F)(F)F)c1C#N)c1ccc(F)c(F)c1 [Example 56, (2S,3S,4R)-1-(3-Cyano-6-methyl-4-(trifluoromethyl)pyridin-2-yl)-N-(3,4-difluorophenyl)-N-ethyl-3,4-dihydroxypyrrolidine-2-carboxamide]
15	CCN(C(=O)[C@@H]1C[C@H](N2CCO[C@@H](CO)C2)CN1c1nc(C)cc(C(F)(F)F)c1C#N)c1ccc(F)c(Cl)c1 [Example 155, (2S,4S)-N-(3-Chloro-4-fluorophenyl)-1-(3-cyano-6-methyl-4-(trifluoromethyl)pyridin-2-yl)-N-ethyl-4-((R)-2-(hydroxymethyl)morpholino)pyrrolidine-2-carboxamide]
165	CCN(C(=O)[C@@H]1C[C@H](NC2COC2)CN1c1cc(C(F)(F)F)cc(C)n1)c1ccc(F)c(F)c1 [Example 138, (2S,4S)-N-(3,4-Difluorophenyl)-N-ethyl-1-(6-methyl-4-(trifluoromethyl)pyridin-2-yl)-4-(oxetan-3-ylamino)pyrrolidine-2-carboxamide]
8	CCN(C(=O)[C@@H]1[C@H](O)CCN1c1nc(C)cc(C(F)(F)F)c1C#N)c1ccc(F)c(Cl)c1 [Example 82, (2S,3R)—N-(3-Chloro-4-fluorophenyl)-1-(3-cyano-6-methyl-4-(trifluoromethyl)pyridin-2-yl)-N-ethyl-3-hydroxypyrrolidine-2-carboxamide]
1560	CCN(C(=O)[C@@H]1C[C@H](NC2CNC2)CN1c1nc(C)cc(C)c1C#N)c1cccc(C)c1 [Example 51, (2S,4S)-4-(Azetidin-3-ylamino)-1-(3-cyano-4,6-dimethylpyridin-2-yl)-N-ethyl-N-(m-tolyl)pyrrolidine-2-carboxamide]
